Measured values: patent US20240261362A1, “Use Of Vetiver Product In Preparation Of Drug Having Anti-Inflammatory Effect And Capable Of Improving Animal Immunity” (Henan Agricultural University, priority 2023, published 2024)

Tests used:
Type in all cases: in vivo
[1] = test system: xylene-induced mouse auricle swelling; test: Xylene-induced mouse auricle swelling; conditions: 0.5 mg/mouse/d intragastric, 7 d
Description: Female SPF-grade Kunming mice weighing 18 g±1 g were purchased from Beijing HFK Bio-technology Co., Ltd., with a license number SCXK (Beijing) 2019-0008. The mice were acclimated to the environment for 3 d before the experiment, and then fed with the experimental drugs every day at 9 a.m. The mice were randomly divided into a blank control group, a dexamethasone (DXM) group, and high-, medium-, and low-dose groups of the water extract of vetiver (the water extract of vetiver prepared in Example 2) or high-, medium-, and low-dose groups of the Radix Astragali water extract (the Radix Astragali water extract prepared in Comparative Example 1), with 8 mice in each group. The mice in each group were intragastrically administered 1 time a day for 7 consecutive days. At 1 h after the final administration, 30 μL of xylene was added to the right ear of each mouse in each group, and while the left ear was kept as a control. After 30 min of the treatment, the mice were killed by neck breaking, and round ear pieces were collected by punching at a same sites of the left and right ears with a 6 mm diameter, and the ear swelling degrees and swelling inhibition rates were calculated. The results were shown in Table 6, swelling inhibition rate (%)=(average swelling degree of blank group−average swelling degree of administration group)/average swelling degree of blank group×100%.

[2] = test system: carrageenan-induced mouse pedal swelling; test: Carrageenan-induced mouse pedal swelling; conditions: 0.5 mg/mouse/d, 7 d
Description: (§1) Female SPF-grade Kunming mice weighing 18 g±1 g were purchased from the Beijing HFK Bio-technology Co., Ltd., with a license number SCXK (Beijing) 2019-0008. The mice were acclimated to the environment for 3 d before the experiment, and then fed with the experimental drugs. The mice were randomly divided into a blank control group, a DXM group, and high-, medium-, and low-dose groups of the water extract of vetiver (the water extract of vetiver prepared in Example 2) or high-, medium-, and low-dose groups of the Radix Astragali water extract (the Radix Astragali water extract prepared in Comparative Example 1), with 8 mice in each group. The mice in each group were administered continuously for 7 d. At 1 h after the final administration, 1% carrageenan was subcutaneously injected into the sole of the right hind limb to induce inflammation (at 0.1 mL/mouse). At 0 h, 1 h, 2 h, 3 h, and 4 h of Inflammatory treatment, the thickness of the paws of the mice was measured with a micrometer, and the swelling degree and swelling inhibition rate of the paws were calculated.

[3] = NO content in serum of mice (carrageenan model); conditions: 0.5 mg/mouse/d, 7 d; mice of Use Example 6
Description: as §1
The mice in each experimental group in Use Example 6 were used as research objects. Blood was collected from eyeballs, serum was separated, stored at −20° C., and level of NO in serum was determined. […]

## C[C@@H]1C[C@H]2[C@@H]3CCC4=CC(=O)C=C[C@]4(C)[C@@]3(F)[C@@H](O)C[C@]2(C)[C@@]1(O)C(=O)CO [DXM, dexamethasone]
[1]; 30 min after xylene
  Swelling degree: 2.033 ± 0.907 mg
[1]; vs blank group
  Swelling inhibition rate: 60.646%
[2]; 0 h
  inhibition rate of pedal swelling: 14.323%
[2]; 0 h after carrageenan
  pedal swelling degree: 0.995 ± 0.076
[2]; 1 h
  inhibition rate of pedal swelling: 29.302%
[2]; 1 h after carrageenan
  pedal swelling degree: 1.090 ± 0.134
[2]; 2 h
  inhibition rate of pedal swelling: 34.994%
[2]; 2 h after carrageenan
  pedal swelling degree: 1.083 ± 0.360
[2]; 3 h
  inhibition rate of pedal swelling: 25.884%
[2]; 3 h after carrageenan
  pedal swelling degree: 1.328 ± 0.040
[2]; 4 h
  inhibition rate of pedal swelling: 13.173%
[2]; 4 h after carrageenan
  pedal swelling degree: 1.438 ± 0.172
[3]
  NO content in serum: 7.737 ± 0.431 µmol/mL
